For one experiment, the system named is human sebaceous glands. Description: Ex vivo assay with sebaceous glands (organ culture, total lipid quantification). Type of experiment: cell-based. The conditions noted are these: day 6; for Total fat quantification, Average (1-12): average of 12 SG test samples, untreated 17.5. An excerpt: 2. Ex Vivo Assay with Sebaceous Glands (SG)
Organ culture of human sebaceous glands has been performed in order to verify the modulatory activity of H-(beta-Ala)-Pro-Dab-NH-benzyl on sebum secretion. A viability test has been performed in parallel. Human sebaceous glands from skin sample od labia minora have been used (donor). The epidermis of the full thickness sample has been carefully removed and the sebaceous glands have been micro-dissected.
The sebaceous glands have been pooled in groups of eight and cultured up to day 6. SGs are cultured in 24 well plate immersed in 500 μl of SGs medium (modified Williams'E medium). After 24 hours the culture medium has been changed and substituted with the medium containing the substance to be tested. The medium has been renewed at day 3 and 5 of culture. At day 6 the glands have been collected and used for the quantification of lipids and proteins. Briefly the SGs have been homogenized in isopropyl alcohol (IPOH) in order to extract lipids and let the protein undissolved. An aliquot of IPOH has been withdrawn to measure the lipids whereas the rest has been evaporated in a vacuum centrifuge. The remaining dry pellet has been minced again in presence of protein lysis buffer. The lipids dissolved in IPOH and the protein dissolved in the lysis buffer have been quantified by infrared spectroscopy (Millipore Direct Detect). The total lipid amount has been obtained by normalizing the quantified lipids upon the quantified proteins (i.e. mg of lipids/mg of proteins).

The target in the next experiment is T1, DPP4 (Homo sapiens, UniProt P27487).
T1 construct: purchased Enzo Life Sciences
Description: Dipeptidyl Peptidase 4 (DPP4) protease assay (DPP4 Drug Discovery Kit, fluorogenic substrate H-Gly-Pro-AMC). Conditions: for DPP4 activity: % activity remaining. Type of experiment: biochemical. On the procedure:
1. Dipeptiyl Peptidase 4 (DPP4) Protease Assay Method
The potential of H-(beta-Ala)-Pro-Dab-NH-benzyl [CAS 823202-99-9], respectively N-Pal-Gly-His-Lys [147732-56-7]/N-Pal-Gly-Gln-Pro-Arg [221227-05-0] (2:1) to inhibit DPP4 was tested using the DPP4 Drug Discovery Kit from Enzo Life Sciences. In brief: DPP4 is pre-incubated for 10 minutes with inhibitors and then added to a quenched fluorogenic substrate (H-Gly-Pro-AMC). Cleavage of the AMC-moiety from the c-terminus of the peptide substrate by DPP4 increases its fluorescence intensity at 460 nm. The AMC signal is then recorded using a fluorescence microplate reader at Ex/Em=380/460 every minute for a total time of 20 min. A “best fit” line is generated with the data points of the first 10-20 min and the slope calculated. The remaining activity in the presence of inhibitor was calculated as follows: % activity remaining (with inhibitor)=(slope of inhibitor-sample/slope of control-sample)*100.

Results on 2 compounds are retold here after patent US10561702B2, “Method for the treatment of skin disorders using dipeptide diaminobutyroyl benzylamide diacetate” (DSM IP ASSETS B.V., priority 2015, dated 2020).

Several values for one entry are separate records, joined by “and”; a condition that tells them apart may be missing. Equal values may be shown once.

T1 sequence (P27487 whole entry): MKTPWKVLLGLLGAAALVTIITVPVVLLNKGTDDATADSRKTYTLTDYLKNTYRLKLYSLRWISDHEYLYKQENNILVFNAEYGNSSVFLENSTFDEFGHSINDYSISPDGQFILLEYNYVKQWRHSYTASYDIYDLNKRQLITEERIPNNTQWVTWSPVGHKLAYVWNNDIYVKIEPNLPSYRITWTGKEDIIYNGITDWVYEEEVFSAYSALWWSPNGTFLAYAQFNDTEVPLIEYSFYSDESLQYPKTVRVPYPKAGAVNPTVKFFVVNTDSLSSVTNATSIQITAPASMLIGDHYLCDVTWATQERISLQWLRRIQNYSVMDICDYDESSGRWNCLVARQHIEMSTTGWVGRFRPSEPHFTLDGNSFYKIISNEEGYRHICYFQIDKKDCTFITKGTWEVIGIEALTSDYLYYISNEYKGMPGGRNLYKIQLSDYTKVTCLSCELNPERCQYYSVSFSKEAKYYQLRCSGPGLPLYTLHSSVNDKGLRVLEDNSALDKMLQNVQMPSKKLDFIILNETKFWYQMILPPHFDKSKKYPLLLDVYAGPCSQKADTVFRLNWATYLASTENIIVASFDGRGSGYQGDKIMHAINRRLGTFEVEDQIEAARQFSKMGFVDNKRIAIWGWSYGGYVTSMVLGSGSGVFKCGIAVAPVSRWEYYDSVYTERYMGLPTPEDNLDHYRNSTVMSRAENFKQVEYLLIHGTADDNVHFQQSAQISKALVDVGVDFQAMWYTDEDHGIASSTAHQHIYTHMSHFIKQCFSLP

Turning to `COc1cc(CNC(=O)CCCC/C=C/C(C)C)ccc1O` [Capsaicin], the “Total fat quantification, Average (1-12)” value in the experiment with human sebaceous glands (5 μM) was found to be 15.5 mg lipid/mg protein. Also, the Total fat quantification with human sebaceous glands (5 μM, single SG test samples 1-12) was 15.8 mg lipid/mg protein and 15.7 mg lipid/mg protein and 15.5 mg lipid/mg protein and 15.6 mg lipid/mg protein and 15.4 mg lipid/mg protein and 15.3 mg lipid/mg protein and 15.1 mg lipid/mg protein.
With H-(beta-Ala)-Pro-Dab-NH-benzyl, the DPP4 activity at DPP4 (0.77 ppm / 1.56 μM) is 74%; on DPP4 (1.55 ppm / 3.13 μM) it was 58%; on DPP4 (3.10 ppm / 6.25 μM), 40%; on DPP4 (6.19 ppm / 12.50 μM) it was 24%; at DPP4 (12.39 ppm / 25.00 μM), 14%; at DPP4 (24.78 ppm / 50.00 μM), 7%. Moreover, the DPP4 activity at DPP4 (49.55 ppm / 100.00 μM) worked out at 4%; on DPP4 (99.10 ppm / 200.00 μM), 2%. The “Effect on DPP4 (in words)” value at DPP4 (summary of tables 1 and 2) is “capable to inhibit DPP4”. Also, in the experiment on human sebaceous glands (10 μM), the “Total fat quantification, Average (1-12)” value was determined as 14.2 mg lipid/mg protein.
